The subject of assay [1] is IL-5. As to the kind of experiment: Cytokine release after LPS induction on human whole blood: IL-5. Format: cell-based. As for the experimental part:
Aim of this in vitro method is to assess compounds effects on release of a panel of cytokines from whole blood following lipopolysaccharide (LPS) induced inflammatory reaction. Whole blood was incubated with compounds for 1 h prior to LPS induction. Cytokine levels in blood were measured using a multiplex FACS-based panel.
IC50 values determined for the tested compounds expressed in microM [μM] and the values for the inhibition of cytokines were listed for each compound.
Effect on cytokines release after LPS induction was performed on the compounds dissolved in DMSO or H2O to reach 10-fold concentrated stock solutions and dissolved in culture media.
Test system: Whole blood was removed from a single donor (into lithium heparin coated tubes; BD Vacutainer; 367886) and diluted 1:5 with RPMI 1640 (Thermo Fisher, 61870036). Within 30 minutes of sampling, blood was incubated with compounds for 1 h prior to LPS stimulation (O111:B4—Sigma L4391; 10 ng/ml final concentration). Stimulation continued under standard cell culture conditions (37° C. with 5% CO2) overnight (18 h), after which plates were centrifuged and supernatant removed and frozen at −80° C. until used for analyses.
Dilution of test compounds: 10×concentrated solutions (concerning to the final assay concentrations) of each test compound were prepared with the appropriate solvent (in DMSO or in water). These 10× compound solutions (10 μl) were then added to 90 μl pre-diluted whole blood (whole blood: RPMI1640, 1:5) resulting in the final assay concentration.
Test method: Diluted whole blood (80 μl) was pre-incubated with compounds (10 μl) to give final assay concentrations of 100, 30, 10, 3, 1, 0.3 and 0.1×10^−6M. Blood was incubated at 37° C. with 5% CO2 for 1 h. LPS was diluted in cell culture media to a concentration of […]; 10 μl was added to the whole blood to give a final concentration of 10 ng/ml. Plates were incubated at 37° C. for 18 h. Plates were centrifuged at 3,000 RPM for 5 minutes at 4° C. and supernatant removed and frozen at −80° C. until FACS analysis was carried out.
Cytokine release was measured using a custom multiplex system (ELISA Genie) according to manufacturers instructions. Prepared samples were run on an Attune NxT flow cytometer (Thermo Fisher).
Quantification of cytokine release inhibition: known concentration standards were run as part of the cytokine panel to allow quantification of each cytokine concentration in each sample. This was carried out using FCAP Array v3.0 software.
Results: The dose response relationship on cytokine release following LPS induction of inflammatory response in whole blood was assessed for all compounds. IC50 values were determined for each compound for a panel of cytokines (GM-CSF, IFN-gamma, IL-1beta, IL-2, IL-4, IL-5, IL-6, IL-8, IL-9, IL-10, IL-12p40, IL-13, IL-17A, IL-17F, IL-18, IL-21, IL-22, IL-33, TGF-beta, TNF-alpha, TNF-beta).

The subject of assay [2] is STZ-induced diabetes model. As to the kind of experiment: STZ-induced diabetic nephropathy, kidney disease and retinopathy model (28 days treatment). Conditions: for Serum TNF-α: p<0.05; for Blood BUN / Disease Score (kidney, H&E) / Eye area (retinal flatmount area covered by vasculature) / Trichrome staining (Kidney fibrosis) / Blood CRP / Blood IL-6 / Blood TGF-beta / Blood TNF-alpha / Urine albumine creatinine ratio (ALB:CRE): day 28 of treatment (week 9); for Blood BUN / Disease Score (kidney, H&E) / Eye area (retinal flatmount area covered by vasculature) / Trichrome staining (Kidney fibrosis) / Blood CRP / Blood IL-6 / Blood TGF-beta / Blood TNF-alpha / Mean day 0 blood glucose Concentration (mmol/L) (SD) / Mean day 28 blood glucose Concentration (mmol/L) (SD) / Urine albumine creatinine ratio (ALB:CRE): 15 mg/kg IV, Captopril 50 mg/kg PO; for Blood CRP / Blood IL-6 / Blood TGF-beta / Blood TNF-alpha: serum; for Urine albumine creatinine ratio (ALB:CRE): urine pooled per group.

The mark [3] stands for this setting: Homo sapiens, LPS 10 ng/ml, 18 h, read-out: Whole Blood: IL-5 IC50.
The mark [4] stands for this setting: human whole blood, inhibition of LPS induced inflammation, read-out: IC50 IL-5.

The structures appear in SMILES notation. pIC50: −log10 of the molar value. Where two headings read alike, the source gives them in different places.

By pIC50 is commonly meant −log10 of the IC50, conventionally taken in molar units. As for `O=C(O)c1cc(O)c(CN(Cc2cc(O)c(C(=O)O)cc2O)Cc2cc(O)c(C(=O)O)cc2O)cc1O` [IIIc-061a, Tris(4-carboxy-2,5-dihydroxyphenylmethyl)amine], the pIC50 in assay [1] (setting [3]) was below 4.00. Moreover, the pIC50 in assay [1] (setting [4]) was 4.00. The “Serum TNF-α” value in assay [2] (28 days) is “significantly lower than vehicle induced controls”. Besides, in assay [2] (28 days, retinal flat mounts, FITC-dextran), the Retina vasculature coverage result is on record as “significantly decreased”. For the same compound, in assay [2] (28 days, vs induced vehicle controls), the “Kidney collagen levels (Masson's Trichrome)” value is reported as “significantly decreased”. Besides, in assay [2] (IV, vs induced vehicle controls), the “Blood glucose levels on day 28” value is recorded as “reduction in blood glucose levels, however this did not reach statistical significance”. Also, the “Blood urea nitrogen levels” value in assay [2] (day 28, vs induced vehicle controls) is “significantly lower than induced vehicle controls”. Further, in assay [2], the “Blood BUN” value is listed as 22.5 ± 4.1; the “Disease Score (kidney, H&E)” value was 8 ± 1; the “Eye area (retinal flatmount area covered by vasculature)” value (shortened to “Eye area”) is 9.1 ± 1.1; the “Trichrome staining (Kidney fibrosis)” value is reported as 1.54 ± 0.55. Also, in assay [2], the “Blood CRP” value is given as 5963 ± 849, the “Blood IL-6” value was 117.59 ± 29.21, the “Blood TGF-beta” value turned out to be 17.35 ± 2.09 and the “Blood TNF-alpha” value worked out at 324.6 ± 43.6. Further, the “Urine ALB:CREA” value in assay [2] (treatment day 28) is “reduced”.
For `O=C(O)c1cc(O)c(C(=O)Nc2ccccc2-c2nnn[nH]2)cc1O` [Ia-001a-Tz, 4-(2-(1H-tetrazol-5-yl)phenyl-aminocarbonyl)-2,5-dihydroxybenzoic acid], in assay [1] (setting [3]), the pIC50 was below 4.00. In assay [1] (setting [4]), the pIC50 is 4.00. Besides, in assay [2] (28 days of treatment, vs vehicle induced controls), the “Serum CRP” value is reported as “significantly reduced”. Also, the “Serum TNF-α” value in assay [2] (28 days) was “significantly lower than vehicle induced controls”. For the same compound, in assay [2], the “Mean day 0 blood glucose Concentration (mmol/L) (SD)” value was 24.9 (7.4) mmol/L; the “Blood BUN” value is reported as 25.3 ± 3.1; the “Disease Score (kidney, H&E)” value was 8 ± 3; the “Eye area” value was determined as 11.8 ± 1. Moreover, in assay [2], the “Trichrome staining (Kidney fibrosis)” value is 2.6 ± 0.98, the “Blood CRP” value was found to be 5191 ± 993, the “Blood IL-6” value was found to be 112.35 ± 20.01 and the “Blood TGF-beta” value turned out to be 14.76 ± 2.95. Also, in assay [2], the “Blood TNF-alpha” value was 327 ± 40.7 and the “Urine albumine creatinine ratio (ALB:CRE)” value is on record as 29.86. Moreover, in assay [2] (day 28), the “Mean day 28 blood glucose Concentration (mmol/L) (SD)” value is on record as 30.8 (6.2) mmol/L.
Regarding `O=C(O)c1cc(NC(=O)c2cc(O)c(C(=O)Nc3ccccc3-c3nnn[nH]3)cc2O)ccc1O` [Ic-001a-Tz/004a, 5-(4-(2-(1H-tetrazol-5-yl)phenylaminocarbonyl)-2,5-dihydroxybenzamido)-2-hydroxy benzoic acid], the pIC50 in assay [1] (Homo sapiens, 18 h, read-out: Whole Blood: IL-5 IC50) was below 4.00. Besides, the negative-log IC50 (pIC50) in assay [1] (Homo sapiens, read-out: IC50 IL-5) is 4.00. Further, in assay [2], the “Mean day 0 blood glucose Concentration (mmol/L) (SD)” value is 25.8 (5.7) mmol/L; the “Blood BUN” value turned out to be 24.1 ± 4.1; the “Disease Score (kidney, H&E)” value came to 9 ± 1; the “Eye area” value stood at 10.7 ± 2.1. Moreover, in assay [2], the “Trichrome staining (Kidney fibrosis)” value worked out at 2.48 ± 0.46, the “Blood CRP” value is reported as 6077 ± 863, the “Blood IL-6” value turned out to be 104.66 ± 22.89 and the “Blood TGF-beta” value turned out to be 15.48 ± 1.73. In addition, in assay [2], the “Blood TNF-alpha” value is on record as 322.8 ± 40.1 and the “Urine albumine creatinine ratio (ALB:CRE)” value is 35.10. Moreover, the “Mean day 28 blood glucose Concentration (mmol/L) (SD)” value in assay [2] (day 28) is given as 29.6 (7.8) mmol/L.
